# Data taken from patent US20240174680A1, “CDK2 INHIBITORS AND METHODS OF USING THE SAME” (Cedilla Therapeutics, Inc., priority 2021, published 2024).
# Molecular target: CDK2/Cyclin E1 (Homo sapiens, UniProt P24941)
# Experiment: CDK2/Cyclin E1 Caliper LabChip EZ Reader mobility shift assay
# Type: biochemical
# Set-up: purchased Eurofins 14-475
# Conditions: read-out: Caliper Assay (CDK2/CCNE1): IC50
# Procedure: Inhibition of CDK2/Cyclin E1 activity in the presence of compounds of the present disclosure was evaluated using a Caliper LabChip® EZ Reader mobility shift assay. In the assay, CDK2/Cyclin E1 (Eurofins, 14-475) catalyzed the phosphorylation of a fluorescently tagged peptide 5-FAM-QSPKKG-CONH2 (PerkinElmer, FL Peptide 18) which induced a difference in capillary electrophoresis mobility. The peptide substrate and product were measured, and the conversion ratio was used to determine the inhibition (as % activity and IC50 values) of CDK2/Cyclin E1. Reactions contained 50 mM HEPES pH 7.5, 10 mM MgCl2, 1 mM EDTA, 2 mM DTT, 0.01% Brij35, 0.5 mg/mL BSA, 0.1% DMSO, 2.5 nM CDK2/Cyclin E1, 100 μM ATP, and 1.5 μM fluorescent peptide substrate.
# Dose titrations of inhibitors in 100% DMSO were combined with 3.25 nM CDK2/Cyclin E1 and 130 μM of ATP in reaction buffer. The mixtures were incubated for 30 minutes before the addition of fluorescent peptide substrate to initiate the kinase reaction. The final conditions were 2.5 nM CDK2/Cyclin E1, 100 μM ATP, and 1.5 μM fluorescent peptide. The reactions were stopped after 100 minutes with the addition of EDTA (400 mM final EDTA concentration). The stopped reactions were analyzed on a Caliper LabChip® EZ Reader II. The conversion ratios were normalized to yield % activity, plotted against compound concentration, and fit to a four-parameter equation to determine the IC50 for each compound.
row,IC50,SMILES
1,0.1 to 1 µM,CC1(C)C[C@@H]1C(=O)N1CC2(CN(C(=O)c3cncs3)C[C@H]2C(=O)NC(CO)c2cccc(C3CCC(F)(F)CC3)n2)C1 (stereo partly shown) [I-419]
2,≤ 0.01 µM,C[C@@H](OCC1CCCCC1)[C@H](NC(=O)[C@@H]1CN(C(=O)c2cnn(Cc3ccccc3)c2)CC12CN(C(=O)[C@H]1CC1(C)C)C2)C(=O)N1CCC[C@H](C(=O)O)C1 [I-483]
3,0.01 to 0.1 µM,CC1(C)C[C@@H]1C(=O)N1CC2(CN(C(=O)c3cncs3)C[C@H]2C(=O)NC(c2cccc(C3CCCCC3)n2)C2CCOC2)C1 (stereo partly shown) [I-493]
4,0.01 to 0.1 µM,CC1(C)C[C@@H]1C(=O)N1CC2(CN(C(=O)c3cncs3)C[C@H]2C(=O)NC(c2cccc(C3CCCCC3)n2)C2CCCO2)C1 (stereo partly shown) [I-495]
5,> 10 µM,CC1(C)C[C@@H]1C(=O)N1CC2(CN(C(=O)c3cnn(Cc4ccccc4)c3)C[C@H]2C(=O)N2CCO[C@H](Cc3ccccc3)C2)C1 [I-255]
6,1 to 10 µM,CC1(C)C[C@@H]1C(=O)N1CC2(CN(C(=O)c3cnn(Cc4ccccc4)c3)C[C@H]2C(=O)N[C@@H]2CCCN(C(=O)C3CCCCC3)C2)C1 [I-215]
7,≤ 0.01 µM,Cc1cc(C(=O)N2CC(C(=O)N[C@H](C(=O)N3CCCCC3)[C@@H](C)OCC3CCCCC3)C3(C2)CN(C(=O)[C@H]2CC2(C)C)C3)sn1 (stereo partly shown) [I-311]
8,> 10 µM,CC1(C)C[C@@H]1C(=O)N1CC2(CN(C(=O)c3cnn(Cc4ccccc4)c3)C[C@H]2C(=O)N[C@H]2CCN(C3CC3)C2=O)C1 [I-243]
9,0.01 to 0.1 µM,CNC(=O)[C@@H](NC(=O)[C@@H]1CN(C(=O)c2cncs2)CC12CN(C(=O)[C@H]1CC1(C)C)C2)[C@@H](C)OC(C)C1CCCCC1 (stereo partly shown) [I-279]
10,0.01 to 0.1 µM,CNC(=O)[C@@H](NC(=O)[C@@H]1CN(C(=O)c2cncs2)CC12CN(C(=O)[C@H]1CC1(C)C)C2)[C@@H](C)OC1CC2CCC1CC2 (stereo partly shown) [I-464]
11,0.1 to 1 µM,C[C@@H](OCC1CCCCC1)[C@H](NC(=O)[C@@H]1CN(C(=O)c2ccn[nH]2)CC12CN(C(=O)[C@H]1CC1(C)C)C2)C(=O)N1CCCCC1 [I-216]
12,≤ 0.01 µM,C[C@@H](OCC1CCC(F)(F)CC1)[C@H](NC(=O)[C@@H]1CN(C(=O)c2cncs2)CC12CN(C(=O)[C@H]1CC1(C)C)C2)C(=O)N1CCC(C(F)(F)F)CC1 [I-398]
13,0.1 to 1 µM,"CNC(=O)[C@@H](NC(=O)[C@@H]1CN(C(=O)c2cnn(Cc3ccccc3)c2)CC12CN(C(=O)[C@H]1CC1(C)C)C2)[C@@H](C)NCC1CCCCC1 [I-269, (S)-6-(1-benzyl-1H-pyrazole-4-carbonyl)-N-((2S,3R)-3-((cyclohexylmethyl)amino)-1-(methylamino)-1-oxobutan-2-yl)-2-((S)-2,2-dimethylcyclopropane-1-carbonyl)-2,6-diazaspiro[3.4]octane-8-carboxamide]"
14,1 to 10 µM,CNC(=O)[C@@H](NC(=O)[C@@H]1CN(C(=O)c2cnn(Cc3ccc(C(=O)O)cc3)c2)CC12CN(C(=O)[C@H]1CC1(C)C)C2)[C@@H](C)OCc1ccccc1 [I-476]
15,1 to 10 µM,CC1(C)C[C@@H]1C(=O)N1CC2(CN(C(=O)c3cnn(Cc4ccccc4)c3)C[C@H]2C(=O)N2CCC[C@H](OCC3CCCCC3)C2)C1 [I-236]
16,> 10 µM,C[C@@H](O)[C@H](NC(=O)[C@@H]1CN(C(=O)c2cnn(C)c2)CC12CN(C(=O)[C@H]1CC1(C)C)C2)C(=O)N1CCCCC1 [I-305]
17,≤ 0.01 µM,C[C@@H](OCC1CCCCC1)[C@@H](COC1CCNCC1)NC(=O)[C@@H]1CN(C(=O)c2cncs2)CC12CN(C(=O)[C@H]1CC1(C)C)C2 [I-329]
18,≤ 0.01 µM,C[C@@H](OCC1CCCCC1)[C@H](NC(=O)C1CN(C(=O)c2cncs2)CC12CN(C(=O)[C@H]1CC1(C)C)C2)C(=O)N1CCC[C@@H](CO)C1 (stereo partly shown) [I-197]
19,≤ 0.01 µM,C[C@@H](OCC12CCC(CC1)OC2)[C@H](NC(=O)[C@@H]1CN(C(=O)c2cncs2)CC12CN(C(=O)[C@H]1CC1(C)C)C2)C(=O)N1CCC2(CC1)CC2 [I-458]
20,1 to 10 µM,Cc1cc(C(=O)N2CC(C(=O)N[C@H](C(=O)N3CCCCC3)[C@@H](C)OCC3CCCCC3)C3(C2)CN(C(=O)[C@H]2CC2(C)C)C3)[nH]n1 (stereo partly shown) [I-264]
21,1 to 10 µM,CNC(=O)[C@@H](NC(=O)[C@@H]1CN(C(=O)c2cnn(Cc3ccccc3)c2)CC12CN(C(=O)C(C)C1CC1)C2)[C@@H](C)OCc1ccccc1 (stereo partly shown) [I-277]
22,1 to 10 µM,COC[C@H]1CCCN(C(=O)[C@@H](C)NC(=O)[C@@H]2CN(C(=O)c3cncs3)CC23CN(C(=O)[C@H]2CC2(C)C)C3)C1 [I-324]
23,≤ 0.01 µM,C[C@@H](OCC1CCCCC1)[C@H](NC(=O)C1CN(C(=O)c2cncs2)CC12CN(C(=O)[C@H]1CC1(C)C)C2)C(=O)N1CCOCC1 (stereo partly shown) [I-138]
24,1 to 10 µM,CNC(=O)[C@@H](NC(=O)[C@@H]1CN(C(=O)c2cnn(Cc3ccccc3)c2)CC12CN(C(=O)C(C)(C)C1CC1)C2)[C@@H](C)OCc1ccccc1 [I-276]
25,0.01 to 0.1 µM,CNC(=O)[C@@H](NC(=O)C1(F)CN(C(=O)c2cnn(Cc3ccccc3)c2)CC12CN(C(=O)[C@H]1CC1(C)C)C2)[C@@H](C)OCC1CCCCC1 (stereo partly shown) [I-501]

# The next lines start with the molecule.
row,SMILES,IC50
1,CNC(=O)[C@@H](NC(=O)[C@H]1CN(C(=O)c2cnn(Cc3ccccc3)c2)CC12CN(C(=O)CC1(COC)CC1)C2)[C@@H](C)OCc1ccccc1 [I-82B],> 10 µM
2,CNC(=O)[C@@H](NC(=O)[C@H]1CN(C(=O)c2cnn(CC3CCOCC3)c2)CC12CN(C(=O)[C@H]1CC1(C)C)C2)[C@@H](C)OCC1CCCCC1 [I-121B],1 to 10 µM
3,CNC(=O)[C@H](COCc1ccccc1)NC(=O)[C@@H]1CN(C(=O)c2cnn(Cc3ccccc3)c2)CC12CN(C(=O)C(C)(C)C)C2 [I-100A],1 to 10 µM
4,CNC(=O)[C@@H](NC(=O)[C@H]1CN(C(=O)c2cnn(Cc3ccccc3)c2)CC12CN(C(=O)C(C)(C)F)C2)[C@@H](C)OCc1ccccc1 [I-90B],> 10 µM
5,C[C@@H](OCC1CCCCC1)[C@H](NC(=O)C1CN(C(=O)c2cnn(Cc3ccccc3)c2)CC12CN(C(=O)[C@H]1CC1(C)C)C2)C(=O)N1CCOCC1 (stereo partly shown) [I-152 mixture],≤ 0.01 µM
6,CNC(=O)[C@@H](NC(=O)[C@@H]1CN(C(=O)c2cnn(CC3CCNCC3)c2)CC12CN(C(=O)[C@H]1CC1(C)C)C2)[C@@H](C)OCc1ccccc1 [I-19A],0.1 to 1 µM
7,CNC(=O)[C@@H](NC(=O)[C@@H]1CN(C(=O)c2cnn(CC3CC3)c2)CC12CN(C(=O)CC1CC1)C2)[C@@H](C)OCc1ccccc1 [I-53A],> 10 µM
8,CNC(=O)[C@@H](NC(=O)[C@@H]1CN(C(=O)c2scnc2C(C)(C)C)CC12CN(C(=O)[C@H]1CC1(C)C)C2)[C@@H](C)OCC1CCCCC1 [I-231A],1 to 10 µM
9,CNC(=O)[C@@H](NC(=O)[C@H]1CN(C(=O)c2cncs2)CC12CN(C(=O)[C@H]1CC1(C)C)C2)[C@@H](C)OCC1CCCCC1 [I-129B],1 to 10 µM
10,C[C@@H](OCC1CCCCC1)[C@H](NC(=O)[C@H]1CN(C(=O)c2cn[nH]c2)CC12CN(C(=O)[C@H]1CC1(C)C)C2)C(=O)N1CCCCC1 [I-151B],1 to 10 µM
11,CNC(=O)[C@@H](NC(=O)[C@@H]1CN(C(=O)c2cnn(Cc3ccccc3)c2)CC12CN(C(=O)[C@H]1CC1(C)C)C2)[C@@H](C)OCC1(C(F)(F)F)CC1 [I-205A],0.1 to 1 µM
12,CNC(=O)[C@@H](NC(=O)[C@H]1CN(C(=O)c2cnn(Cc3ccccc3)c2)CC12CN(C(=O)CC1(CO)CC1)C2)[C@@H](C)OCc1ccccc1 [I-92B],> 10 µM
13,CNC(=O)[C@@H](NC(=O)[C@@H]1CN(Cc2ccncc2)CC12CN(C(=O)[C@H]1CC1(C)C)C2)[C@@H](C)OCc1ccccc1 [I-55A],> 10 µM
14,CNC(=O)[C@@H](NC(=O)[C@H]1CN(C(=O)c2cnn(Cc3ccccc3)c2)CC12CN(C(=O)[C@H]1CC1(C)C)C2)[C@@H](C)OCC1CCCC1 [I-110B],0.1 to 1 µM
15,CC1(C)C[C@@H]1C(=O)N1CC2(CN(C(=O)c3cnn(Cc4ccccc4)c3)C[C@H]2C(=O)N2CCCC(Cc3ccccc3)C2)C1 (stereo partly shown) [I-91A],> 10 µM
16,CNC(=O)[C@@H](NC(=O)[C@H]1CN(Cc2cn[nH]c2)CC12CN(C(=O)[C@H]1CC1(C)C)C2)[C@@H](C)OCc1ccccc1 [I-50B],> 10 µM
17,CNC(=O)[C@@H](NC(=O)[C@H]1CN(Cc2cnn(Cc3ccccc3)c2)CC12CN(C(=O)[C@H]1CC1(C)C)C2)[C@@H](C)OCc1ccccc1 [I-16B],> 10 µM
18,"CNC(=O)[C@@H](NC(=O)[C@@H]1CN(C(=O)Nc2cnn(Cc3ccccc3)c2)CC12CN(C(=O)[C@H]1CC1(C)C)C2)[C@@H](C)OCc1ccccc1 [I-48A, (S)—N6-(1-benzyl-1H-pyrazol-4-yl)-N8-((2S,3R)-3-(benzyloxy)-1-(methylamino)-1-oxobutan-2-yl)-2-((S)-2,2-dimethylcyclopropane-1-carbonyl)-2,6-diazaspiro[3.4]octane-6,8-dicarboxamide]",> 10 µM
19,CNC(=O)[C@@H](NC(=O)[C@@H]1CN(C(=O)c2cnn(Cc3ccccc3)c2)CC12CN(C(=O)C(C)(C)C)C2)[C@@H](C)OCc1ccccc1 [I-65A],0.01 to 0.1 µM
20,C[C@@H](OCC1CCCCC1)[C@H](NC(=O)C1CN(C(=O)c2cnn(Cc3ccccc3)c2)CC12CN(C(=O)[C@H]1CC1(C)C)C2)C(=O)N1CC(C)(C)C1 (stereo partly shown) [I-153 mixture],≤ 0.01 µM
21,CNC(=O)[C@@H](NC(=O)[C@@H]1CN(C(=O)c2cnn(Cc3ccccc3)c2)CC12CN(C(=O)[C@H]1CC1(C)C)C2)[C@@H](C)OCC1CCC1 [I-144A],0.01 to 0.1 µM
